Experimental data published in US20250115926A1, “DEREGULATED DHS AND TYRA ENZYMES OF GRASSES ENABLE EFFICIENT PRODUCTION OF BOTH TYROSINE AND PHENYLALANINE” (Wisconsin Alumni Research Foundation, priority 2023, published 2025).
Where “and” joins values, the source holds several entries; their conditions need not be identical. Equal values may be shown once. Where a name gives a salt, the structure may show the parent alone.

Columns and labels:
[1] = tested on: Brachypodium distachyon DHS enzymes (BdDHS1a, BdDHS1b, BdDHS2); test: DHS activity: kinetics and effector inhibition, three isoforms together; assay type: biochemical; conditions: arogenate treated with 1N HCl for 30 minutes (FIG. 16A)
Source text: (§1) To examine their functional properties, the recombinant DHS enzymes of Brachypodium were produced and characterized in vitro.
(§2) As recent studies have shown that plant DHS enzymes are feedback-inhibited by multiple effector molecules^15, 16, we tested the effect of AAAs and another 14 related metabolites, including various intermediates of the shikimate pathway and the pathways downstream of AAAs, on Brachypodium DHS enzymes.
(§3) The DHS assay for UHPLC-MS quantification was set up using the same settings as described in the previous paragraph for the UV-based DHS assay, which guaranteed at least 10 minutes of reaction linearity. After a 10-minute incubation, 20 μL of the reactions (out of a total volume of 50 μL) were mixed into 80 μL of methanol, vortexed and transferred to vials for injection. Analysis of DAHP by UHPLC-MS was conducted using the same chromatographic settings as described for the UHPLC-MS analysis of soluble metabolites and compared with an authentic DAHP standard (Sta. Cruz biotechnology, cat. no. sc-216432).

[2] = biological target: Arabidopsis thaliana AtDHS2 (Arabidopsis thaliana, UniProt Q00218); test: DHS inhibition assay with hydrolyzed arogenate; assay type: biochemical; conditions: arogenate treated with 1N HCl for 30 minutes (FIG. 16A)
Protocol: All DHS effectors tested were included in the initial reaction mixtures at a concentration of 0.5 mM, except for IC50 determination for arogenate and tryptophan, in which variable concentrations were used. To ensure at least 10 minutes of linear reaction, enzyme mass per reaction was carefully adjusted to between 100 to 300 ng (depending on the specific activity of each specific isoform) using DHS storage buffer supplemented with BSA. […] The enzymatic reaction was started with the addition of E4P (variable concentration, see below).

[3] = biological target: T1, Brachypodium distachyon BdTyrAnc (non-canonical TyrA), SEQ ID NO: 37, recombinant (Brachypodium distachyon, UniProt I1GYB3); test: TyrA arogenate dehydrogenase kinetics and tyrosine inhibition (340 nm); assay type: biochemical; conditions: arogenate and NADP^+
T1 construct: from cDNA
T1 sequence (I1GYB3 58-361): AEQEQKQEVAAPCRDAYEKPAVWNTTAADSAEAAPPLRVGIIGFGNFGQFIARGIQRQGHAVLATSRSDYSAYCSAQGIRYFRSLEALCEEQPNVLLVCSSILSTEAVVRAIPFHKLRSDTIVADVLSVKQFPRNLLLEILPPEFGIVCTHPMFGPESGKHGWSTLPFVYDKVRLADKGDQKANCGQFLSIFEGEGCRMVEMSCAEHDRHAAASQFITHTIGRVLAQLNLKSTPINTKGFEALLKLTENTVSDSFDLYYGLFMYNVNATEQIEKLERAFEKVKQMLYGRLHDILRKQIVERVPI
Source text: (§4) Next, to study the biochemical properties of grass TyrA enzymes, we generated and characterized recombinant purified TyrA proteins from Brachypodium (BdTyrA) and Sorghum (SbTyrA), two distantly related grass species^43, 44. Whereas TyrA enzymes from dicot plants are generally NADP^+-dependent arogenate dehydrogenases^20, 39, 45, except for NADP^+-prephenate dehydrogenases in the legume family^40, 46, previous reports on the substrate preference of grass TyrA enzymes are inconclusive^17, 19. […] NAD^+-prephenate dehydrogenase activity was absent in all cases, ruling out a significant contamination of the enzyme preparations with the TyrA enzyme from E. coli^47.48.

[4] = biological target: T2, Sorghum bicolor SbTyrAnc (non-canonical TyrA), SEQ ID NO: 43, recombinant (Sorghum bicolor, UniProt C5Z447); test: as above; assay type: biochemical; conditions: arogenate and NADP^+
T2 construct: from cDNA
T2 sequence (C5Z447 56-382): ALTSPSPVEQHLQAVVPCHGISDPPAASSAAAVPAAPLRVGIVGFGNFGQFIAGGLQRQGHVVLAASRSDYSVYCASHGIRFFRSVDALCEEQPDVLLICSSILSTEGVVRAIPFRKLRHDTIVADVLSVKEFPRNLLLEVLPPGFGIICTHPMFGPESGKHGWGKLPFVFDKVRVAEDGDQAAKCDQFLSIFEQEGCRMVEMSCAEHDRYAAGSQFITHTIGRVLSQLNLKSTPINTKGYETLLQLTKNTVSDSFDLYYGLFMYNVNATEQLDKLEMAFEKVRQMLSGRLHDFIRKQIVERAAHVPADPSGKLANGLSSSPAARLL
Source text: as §4

[5] = biological target: Brachypodium distachyon BdDHS1a, SEQ ID NO: 1, recombinant (Brachypodium distachyon, UniProt I1GSB3); test: DHS activity: kinetics and effector inhibition
Source text: as §1, §2, §3

[6] = biological target: Brachypodium distachyon BdDHS1b, SEQ ID NO: 3, recombinant (Brachypodium distachyon, UniProt I1H4W3); test: DHS activity: kinetics and effector inhibition; assay type: biochemical
Source text: as §1, §2, §3

[7] = biological target: Brachypodium distachyon BdDHS2, SEQ ID NO: 5, recombinant (Brachypodium distachyon, UniProt I1I809); test: DHS activity: kinetics and effector inhibition; assay type: biochemical
Source text: as §1, §2, §3

[8] = biological target: Sorghum bicolor SbDHS1a, SEQ ID NO: 9, recombinant (Sorghum bicolor, UniProt C5X2H5); test: DHS activity: effector inhibition; assay type: biochemical; conditions: effector 0.5 mM
Protocol: (§5) In contrast, BdDHS1b was not inhibited by arogenate even up to 2.5 mM. In fact, DHS1b activity increased in the presence of high concentrations of arogenate (FIG. 4F), likely due to high concentrations of contaminant NaCl present in the arogenate preparation (FIG. 16). Under acidic conditions, arogenate is known to undergo a spontaneous dehydration and decarboxylation into […]. […] Like in Brachypodium DHS enzymes, 0.5 mM arogenate inhibited SbDHS1a and SbDHS2 at ˜50% and ˜40%, respectively, but had no effect on SbDHS1b.

[9] = biological target: Sorghum bicolor SbDHS1b, SEQ ID NO: 11, recombinant (Sorghum bicolor, UniProt C5WXQ3); test: DHS activity: effector inhibition; assay type: biochemical; conditions: effector 0.5 mM
Protocol: as §5

[10] = biological target: T3, Sorghum bicolor SbDHS2, SEQ ID NO: 13, recombinant (Sorghum bicolor, UniProt C5YJQ4); test: DHS activity: effector inhibition; assay type: biochemical; conditions: effector 0.5 mM
T3 construct: pET28a (NdeI/BamHI), E. coli KRX
Protocol: as §5

Chain of Brachypodium distachyon BdDHS1a, SEQ ID NO: 1, recombinant (I1GSB3 46-537): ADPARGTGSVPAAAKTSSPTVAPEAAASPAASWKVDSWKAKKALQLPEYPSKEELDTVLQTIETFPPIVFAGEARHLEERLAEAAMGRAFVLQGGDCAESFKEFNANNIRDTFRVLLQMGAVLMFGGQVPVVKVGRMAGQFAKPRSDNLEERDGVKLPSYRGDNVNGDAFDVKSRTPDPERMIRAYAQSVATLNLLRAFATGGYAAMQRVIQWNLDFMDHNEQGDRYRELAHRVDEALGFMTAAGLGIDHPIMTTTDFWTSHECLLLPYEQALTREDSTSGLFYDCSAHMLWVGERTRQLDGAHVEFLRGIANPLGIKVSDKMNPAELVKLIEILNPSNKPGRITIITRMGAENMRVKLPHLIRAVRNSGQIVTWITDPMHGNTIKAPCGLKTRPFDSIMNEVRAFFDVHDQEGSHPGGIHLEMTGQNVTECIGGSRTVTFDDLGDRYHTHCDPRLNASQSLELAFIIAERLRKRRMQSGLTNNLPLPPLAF
Chain of Brachypodium distachyon BdDHS2, SEQ ID NO: 5, recombinant (I1I809 31-503): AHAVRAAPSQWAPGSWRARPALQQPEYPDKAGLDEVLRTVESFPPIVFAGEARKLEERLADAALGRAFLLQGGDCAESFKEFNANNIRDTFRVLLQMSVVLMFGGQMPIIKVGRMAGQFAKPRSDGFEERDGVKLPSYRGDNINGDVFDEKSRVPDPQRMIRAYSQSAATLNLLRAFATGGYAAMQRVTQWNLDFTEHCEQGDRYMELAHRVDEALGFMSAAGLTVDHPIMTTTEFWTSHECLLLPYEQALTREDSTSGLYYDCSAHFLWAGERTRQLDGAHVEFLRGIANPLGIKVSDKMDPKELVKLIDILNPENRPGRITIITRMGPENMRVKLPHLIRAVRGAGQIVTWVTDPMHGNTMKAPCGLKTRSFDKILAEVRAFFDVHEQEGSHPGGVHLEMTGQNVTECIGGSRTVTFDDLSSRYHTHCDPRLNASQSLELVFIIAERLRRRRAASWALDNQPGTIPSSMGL
Chain of Brachypodium distachyon BdDHS1b, SEQ ID NO: 3, recombinant (I1H4W3 37-542): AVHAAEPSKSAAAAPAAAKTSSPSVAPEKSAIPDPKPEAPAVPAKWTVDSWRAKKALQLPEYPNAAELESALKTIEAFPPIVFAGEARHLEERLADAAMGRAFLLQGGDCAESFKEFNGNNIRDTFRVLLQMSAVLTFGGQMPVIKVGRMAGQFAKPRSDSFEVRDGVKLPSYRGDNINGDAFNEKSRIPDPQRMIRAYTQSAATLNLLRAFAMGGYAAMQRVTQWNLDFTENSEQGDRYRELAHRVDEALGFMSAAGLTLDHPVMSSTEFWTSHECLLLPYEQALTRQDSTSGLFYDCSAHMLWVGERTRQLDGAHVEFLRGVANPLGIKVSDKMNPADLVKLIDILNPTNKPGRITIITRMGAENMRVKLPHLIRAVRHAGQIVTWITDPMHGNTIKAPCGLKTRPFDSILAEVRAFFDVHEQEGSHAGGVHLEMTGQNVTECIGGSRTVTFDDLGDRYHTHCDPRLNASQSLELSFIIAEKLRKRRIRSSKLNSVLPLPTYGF
Chain of Sorghum bicolor SbDHS1a, SEQ ID NO: 9, recombinant (C5X2H5 46-540): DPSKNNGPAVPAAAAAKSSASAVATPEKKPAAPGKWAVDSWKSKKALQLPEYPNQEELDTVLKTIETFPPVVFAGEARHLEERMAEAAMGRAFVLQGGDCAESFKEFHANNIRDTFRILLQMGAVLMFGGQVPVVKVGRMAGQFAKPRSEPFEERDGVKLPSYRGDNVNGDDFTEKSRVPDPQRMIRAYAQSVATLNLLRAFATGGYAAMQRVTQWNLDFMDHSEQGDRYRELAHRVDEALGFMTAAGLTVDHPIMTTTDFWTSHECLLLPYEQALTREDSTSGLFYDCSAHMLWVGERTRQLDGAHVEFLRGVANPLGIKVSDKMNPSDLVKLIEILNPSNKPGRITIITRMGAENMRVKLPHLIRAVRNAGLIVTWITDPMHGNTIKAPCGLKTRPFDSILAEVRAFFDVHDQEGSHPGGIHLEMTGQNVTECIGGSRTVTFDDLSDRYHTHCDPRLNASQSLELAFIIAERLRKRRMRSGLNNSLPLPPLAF
Chain of Arabidopsis thaliana AtDHS2 (Q00218 2-507): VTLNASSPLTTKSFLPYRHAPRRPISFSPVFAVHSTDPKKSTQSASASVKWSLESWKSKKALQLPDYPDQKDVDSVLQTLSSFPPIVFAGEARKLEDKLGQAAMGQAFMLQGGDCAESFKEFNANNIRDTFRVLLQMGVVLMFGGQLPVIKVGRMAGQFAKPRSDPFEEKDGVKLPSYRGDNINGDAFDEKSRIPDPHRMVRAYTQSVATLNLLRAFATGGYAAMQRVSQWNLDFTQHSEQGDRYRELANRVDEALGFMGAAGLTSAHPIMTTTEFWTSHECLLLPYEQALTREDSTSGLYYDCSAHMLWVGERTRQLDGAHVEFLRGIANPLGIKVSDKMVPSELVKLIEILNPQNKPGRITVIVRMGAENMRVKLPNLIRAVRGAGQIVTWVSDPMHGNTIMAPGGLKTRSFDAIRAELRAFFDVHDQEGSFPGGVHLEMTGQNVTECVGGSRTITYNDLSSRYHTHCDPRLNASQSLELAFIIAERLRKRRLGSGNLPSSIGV
Chain of Sorghum bicolor SbDHS1b, SEQ ID NO: 11, recombinant (C5WXQ3 48-551): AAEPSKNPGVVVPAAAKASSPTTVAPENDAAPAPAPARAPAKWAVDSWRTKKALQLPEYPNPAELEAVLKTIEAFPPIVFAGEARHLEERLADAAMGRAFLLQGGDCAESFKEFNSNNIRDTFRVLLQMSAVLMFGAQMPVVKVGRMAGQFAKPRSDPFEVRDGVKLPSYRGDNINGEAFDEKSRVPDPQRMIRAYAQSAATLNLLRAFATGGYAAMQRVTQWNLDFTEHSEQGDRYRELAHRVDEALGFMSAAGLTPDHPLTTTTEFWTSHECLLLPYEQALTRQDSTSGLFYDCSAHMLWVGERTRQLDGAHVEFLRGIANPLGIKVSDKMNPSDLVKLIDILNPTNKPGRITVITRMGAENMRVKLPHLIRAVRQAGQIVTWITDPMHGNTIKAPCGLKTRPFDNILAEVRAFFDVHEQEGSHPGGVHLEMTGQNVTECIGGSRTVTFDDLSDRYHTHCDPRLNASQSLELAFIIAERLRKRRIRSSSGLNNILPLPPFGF
T3 sequence (C5YJQ4 42-508): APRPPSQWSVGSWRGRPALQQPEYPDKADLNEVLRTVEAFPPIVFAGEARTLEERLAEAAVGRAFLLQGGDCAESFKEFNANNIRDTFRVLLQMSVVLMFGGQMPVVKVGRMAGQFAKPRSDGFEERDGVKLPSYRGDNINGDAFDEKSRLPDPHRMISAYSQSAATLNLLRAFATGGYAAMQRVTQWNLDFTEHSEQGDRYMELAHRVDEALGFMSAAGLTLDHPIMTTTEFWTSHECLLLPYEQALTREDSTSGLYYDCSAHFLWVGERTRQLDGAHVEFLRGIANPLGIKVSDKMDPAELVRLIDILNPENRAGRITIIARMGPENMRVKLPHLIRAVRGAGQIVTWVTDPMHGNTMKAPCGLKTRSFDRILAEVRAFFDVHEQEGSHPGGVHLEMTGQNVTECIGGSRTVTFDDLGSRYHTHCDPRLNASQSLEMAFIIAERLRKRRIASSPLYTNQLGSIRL

Row | Structure (SMILES) | inhibition by hydrolyzed arogenate [1] | inhibition by hydrolyzed arogenate ([1]; listed as Arogenate that is hydrolyzed to phenylalanine) | inhibition by hydrolyzed arogenate [2] | kcat/Km [3] [s⁻¹ mM⁻¹] | kcat/Km [4] [s⁻¹ mM⁻¹] | IC50 ([5]; IC50 (arogenate), 1.5 mM PEP, 2 mM E4P) | inhibition at 500 µM ([5]; read-out: inhibition at 0.5 mM) [%] | inhibition by arogenate up to 2.5 mM ([6]; even up to 2.5 mM) | IC50 ([6]; read-out: IC50 (arogenate)) [µM] | IC50 ([7]; 1.5 mM PEP, 2 mM E4P, read-out: IC50 (arogenate)) | mode of inhibition with respect to E4P ([7]; FIG. 18) | mode of inhibition with respect to PEP ([7]; FIG. 18) | inhibition at 500 µM ([7]; effector 0.5 mM, read-out: inhibition at 0.5 mM) [%] | inhibition at 500 µM [8] [%] | effect at 0.5 mM [9] | inhibition at 500 µM [10] [%]
1 | N[C@@H](Cc1ccccc1)C(=O)O [Arogenate incubated with HCl] | did not inhibit | does not inhibit | does not inhibit |  |  |  |  |  |  |  |  |  |  |  |  | 
2 | N[C@@H](CC1(C(=O)O)C=CC(O)C=C1)C(=O)O (stereo partly shown) [arogenate] |  |  |  | 579.6 ± 24.3 | 337.5 ± 19.5 | ~285 µM and 285 µM | ~50 | not inhibited | > 500 | ~91 µM and 91 µM | uncompetitive inhibition kinetics | mixed inhibition mechanism | > 75 | ~50 | no effect | ~40
